Results published in patent publication US7294641B2, “Heterocyclic compound for stimulating or inducing the growth of the hair or eyelashes and/or slowing down their loss, composition comprising it and its uses” (L'Oreal, priority 2002, dated 2007).
Structures can show the parent of a compound that is named as a salt.

What was measured:
15PGDH [1] = target: T1, 15PGDH (Homo sapiens, UniProt P15428); assay: Specific inhibitory effectiveness for 15PGDH on a cell model (PGF2 secreted by PMA/LPS-treated U937); format: cell-based; set-up: endogenous in cells; host or cells: U937 (ATCC CRL-1593), PMA-differentiated, LPS-stimulated; conditions: 5 μM test molecule, 10 ng LPS, 6 h at 37° C., immuno-enzymatic assay
T1 sequence (P15428 1-266): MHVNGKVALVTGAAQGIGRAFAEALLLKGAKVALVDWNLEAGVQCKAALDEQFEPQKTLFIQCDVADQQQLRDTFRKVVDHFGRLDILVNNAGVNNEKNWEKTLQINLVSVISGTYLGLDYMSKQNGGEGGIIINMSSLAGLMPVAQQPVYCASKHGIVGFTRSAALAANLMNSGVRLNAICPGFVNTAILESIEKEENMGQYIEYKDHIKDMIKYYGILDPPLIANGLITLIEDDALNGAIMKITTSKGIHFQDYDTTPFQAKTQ
Experimental: The present study is targeted at evaluating the compounds of formula (I) in a cell model. This study makes it possible to determine the penetration of the active principle into the cytosol and its effectiveness as specific inhibitor of 15-PGDH under more complex experimental conditions than a simple reaction medium.
D-2. Culturing of U937 (CRL-1593 American Type Cells Collection) in RPMI medium 1640+10% of foetal calf serum+2 mM of L-glutamine+antibiotics at 37° C. under 5% of CO2.
D-1. Preparation of a suspension of U937 (1×10^6 cells/ml) in RPMI medium 1640+10% of foetal calf serum+2 mM of glutamine+antibiotics+10 nM of PMA (phorbol 12-myristate 13-acetate); introduction of 200 μl per test well of this suspension into a 96-well plate (3 wells per molecule and per concentration to be tested+corresponding controls); incubation at 37° C. for 36 h 00 under 5% CO2.
D0. Removal of the supernatants (the cells have adhered to the bottom of the wells: monitoring using a microscope) and introduction into each well of 100 μl of RPMI 1640+2 mM of L-glutamine+10 ng of LipoPolySaccharide (LPS) (except absolute control)+the test molecule at the desired concentration (in this instance, 5 and 25 μM).
Incubation at 37° C. for 6 h 00 under 5% of CO2.
The mother solutions of test molecules are at 25 mM in DiMethyl SulfOxide.
All the wells comprise the same final amount of DMSO. […]

15PGDH [2] = target: T1, 15PGDH; assay: Test on 15-PGDH (spectrophotometric, 340 nm, PGE2/β-NAD); format: biochemical; set-up: made in house
Experimental: The enzyme 15-PGDH is obtained as disclosed in Application FR-A-02/05067, filed on behalf of L'Oréal, in suspension in a suitable medium at a concentration of 0.3 mg/ml, then blocked at −80° C. For the requirements of the test, this suspension is defrosted and stored in ice.
Furthermore, a Tris 100 mM, pH=7.4, buffer comprising 0.1 mM of dithiothreitol (D5545, Sigma-Aldrich, L'isle D'Abeau Chesne, BP 701, 38297, Saint Quentin Fallavier), 1.5 mM of β-NAD (N6522, Sigma-Aldrich, L'isle D'Abeau Chesne, BP 701, 38297, Saint Quentin Fallavier) and 50 μM of prostaglandin E2 (P4172, Sigma-Aldrich, L'isle D'Abeau Chesne, BP 701, 38297, Saint Quentin Fallavier) is prepared.
(§1) 0.965 ml of this buffer (brought beforehand to 37° C.) is introduced into the cell of a spectrophotometer (Perkin-Elmer, Lambda 2) thermostatically controlled at 37° C., the wavelength of which for the measurement is adjusted to 340 nm. 0.035 ml of enzymatic suspension at 37° C. is introduced into the cell concomitantly with the recording (corresponding to an increase in optical density at 340 nm). The maximum rate of reaction is noted.
The test values (comprising the compounds (I)) are compared with the control value (without compound (I)); the results indicated represent the concentration at which the compound (I) inhibits 50% of the enzymatic activity of 15-PGDH, referred to as IC50dh.

PGF synthase = target: T2, PGF synthase (Homo sapiens, UniProt P42330); assay: Test on PGFS (spectrophotometric, 340 nm, 9,10-phenanthrenequinone/β-NADPH); format: biochemical; conditions: Tris 100 mM pH 6.5, 37° C., 20 μM 9,10-phenanthrenequinone, 100 μM β-NADPH; read-out: Inhibition of PGFS IC50fs
T2 construct: made in house
T2 sequence (P42330 1-323): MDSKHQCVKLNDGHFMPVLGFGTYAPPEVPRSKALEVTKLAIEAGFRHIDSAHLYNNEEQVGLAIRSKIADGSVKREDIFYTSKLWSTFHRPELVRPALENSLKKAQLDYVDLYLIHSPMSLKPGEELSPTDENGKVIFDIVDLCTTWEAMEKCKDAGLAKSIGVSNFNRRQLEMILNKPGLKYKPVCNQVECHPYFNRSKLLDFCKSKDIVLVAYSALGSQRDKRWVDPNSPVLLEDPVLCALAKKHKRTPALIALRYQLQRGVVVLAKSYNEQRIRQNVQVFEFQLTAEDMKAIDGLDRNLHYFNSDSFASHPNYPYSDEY
Experimental: The enzyme PGF synthase is obtained as disclosed in the document FR-A-02/05067, at a concentration of 0.5 mg/ml, in suspension in an appropriate medium, and is blocked at −80° C. For the requirements of the test, this suspension is defrosted and stored in ice.
Furthermore, a Tris 100 mM, pH=6.5, buffer comprising 20 μM of 9,10-phenanthrenequinone* (P2896, Sigma-Aldrich, L'isle D'Abeau Chesne, BP 701, 38297, Saint Quentin Fallavier) and 100 μM of β-NADPH(N1630, Sigma-Aldrich, L'isle D'Abeau Chesne, BP 701, 38297, Saint Quentin Fallavier) is prepared in a brown bottle (exclusion of light).
* A mother solution assaying 1 mM is prepared in absolute ethanol and is brought to 40° C.; the bottle is placed in an ultrasonic bath to facilitate the dissolution of the product.
as §1, with “0.950” for “0.965”, “0.05” for “0.035”, “a fall” for “an increase”, “noted. […]” for “noted.”

amount of PGF2 secreted by the cells, % of the LPS control (15PGDH [1]) | IC50 (15PGDH [2]; Tris 100 mM pH 7.4, 37° C., 50 μM prostaglandin E2, 1.5 mM β-NAD, read-out: Inhibition of 15-PGDH IC50dh) [µM] | ratio IC50fs/IC50dh (15PGDH [2]; selectivity for 15-PGDH with respect to PGFS) | IC50 (PGF synthase) [µM] | SMILES
+44 ± 16% | – | – | – | O=C1N=C(O)/C(=C/c2ccc(-c3ccc(C(=O)O)cc3)o2)S1 [Compound 8, Disodium salt of 4-{5-[(2,4-disulpho-1,3-thiazolidin-5-ylidene)methyl]-2-furyl}benzoic acid (isomer Z)]
+76 ± 20% | 0.3 | greater than 13 | 4 | O=C1NC(=O)C(=Cc2ccc(-c3ccc(C(=O)O)cc3)o2)S1 [Compound 1, 4-{5-[(2,4-Dioxo-1,3-thiazolidin-5-ylidene)methyl]-2-furyl}benzoic acid]
